According to ChEMBL document CHEMBL1201862, “PubChem BioAssay data set” (2004):
The source made the active and inactive calls.

Experiments:
[1] = molecular target: Beta-galactosidase (Escherichia coli, UniProt Q8VNN2); assay: detection-enzyme interference by beta-gal modulators – biochemical, E. coli enzyme, set 3, artefact control for CCR6 antagonist project, dose response (AID 504712); type: functional
[2] = Luminescence Cell-Based Dose Retest to Confirm Inhibitors of Cancer Stem Cells. [Related pubchem assays (depositor defined):AID2717, AID2721]; type: functional; settings: Homo sapiens
[3] = molecular target: Voltage-dependent T-type calcium channel subunit alpha-1H (Homo sapiens, UniProt O95180); type: functional;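 note: channel activity triggered by adding a high calcium stimulation buffer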
Chain of Voltage-dependent T-type calcium channel subunit alpha-1H (O95180 whole entry): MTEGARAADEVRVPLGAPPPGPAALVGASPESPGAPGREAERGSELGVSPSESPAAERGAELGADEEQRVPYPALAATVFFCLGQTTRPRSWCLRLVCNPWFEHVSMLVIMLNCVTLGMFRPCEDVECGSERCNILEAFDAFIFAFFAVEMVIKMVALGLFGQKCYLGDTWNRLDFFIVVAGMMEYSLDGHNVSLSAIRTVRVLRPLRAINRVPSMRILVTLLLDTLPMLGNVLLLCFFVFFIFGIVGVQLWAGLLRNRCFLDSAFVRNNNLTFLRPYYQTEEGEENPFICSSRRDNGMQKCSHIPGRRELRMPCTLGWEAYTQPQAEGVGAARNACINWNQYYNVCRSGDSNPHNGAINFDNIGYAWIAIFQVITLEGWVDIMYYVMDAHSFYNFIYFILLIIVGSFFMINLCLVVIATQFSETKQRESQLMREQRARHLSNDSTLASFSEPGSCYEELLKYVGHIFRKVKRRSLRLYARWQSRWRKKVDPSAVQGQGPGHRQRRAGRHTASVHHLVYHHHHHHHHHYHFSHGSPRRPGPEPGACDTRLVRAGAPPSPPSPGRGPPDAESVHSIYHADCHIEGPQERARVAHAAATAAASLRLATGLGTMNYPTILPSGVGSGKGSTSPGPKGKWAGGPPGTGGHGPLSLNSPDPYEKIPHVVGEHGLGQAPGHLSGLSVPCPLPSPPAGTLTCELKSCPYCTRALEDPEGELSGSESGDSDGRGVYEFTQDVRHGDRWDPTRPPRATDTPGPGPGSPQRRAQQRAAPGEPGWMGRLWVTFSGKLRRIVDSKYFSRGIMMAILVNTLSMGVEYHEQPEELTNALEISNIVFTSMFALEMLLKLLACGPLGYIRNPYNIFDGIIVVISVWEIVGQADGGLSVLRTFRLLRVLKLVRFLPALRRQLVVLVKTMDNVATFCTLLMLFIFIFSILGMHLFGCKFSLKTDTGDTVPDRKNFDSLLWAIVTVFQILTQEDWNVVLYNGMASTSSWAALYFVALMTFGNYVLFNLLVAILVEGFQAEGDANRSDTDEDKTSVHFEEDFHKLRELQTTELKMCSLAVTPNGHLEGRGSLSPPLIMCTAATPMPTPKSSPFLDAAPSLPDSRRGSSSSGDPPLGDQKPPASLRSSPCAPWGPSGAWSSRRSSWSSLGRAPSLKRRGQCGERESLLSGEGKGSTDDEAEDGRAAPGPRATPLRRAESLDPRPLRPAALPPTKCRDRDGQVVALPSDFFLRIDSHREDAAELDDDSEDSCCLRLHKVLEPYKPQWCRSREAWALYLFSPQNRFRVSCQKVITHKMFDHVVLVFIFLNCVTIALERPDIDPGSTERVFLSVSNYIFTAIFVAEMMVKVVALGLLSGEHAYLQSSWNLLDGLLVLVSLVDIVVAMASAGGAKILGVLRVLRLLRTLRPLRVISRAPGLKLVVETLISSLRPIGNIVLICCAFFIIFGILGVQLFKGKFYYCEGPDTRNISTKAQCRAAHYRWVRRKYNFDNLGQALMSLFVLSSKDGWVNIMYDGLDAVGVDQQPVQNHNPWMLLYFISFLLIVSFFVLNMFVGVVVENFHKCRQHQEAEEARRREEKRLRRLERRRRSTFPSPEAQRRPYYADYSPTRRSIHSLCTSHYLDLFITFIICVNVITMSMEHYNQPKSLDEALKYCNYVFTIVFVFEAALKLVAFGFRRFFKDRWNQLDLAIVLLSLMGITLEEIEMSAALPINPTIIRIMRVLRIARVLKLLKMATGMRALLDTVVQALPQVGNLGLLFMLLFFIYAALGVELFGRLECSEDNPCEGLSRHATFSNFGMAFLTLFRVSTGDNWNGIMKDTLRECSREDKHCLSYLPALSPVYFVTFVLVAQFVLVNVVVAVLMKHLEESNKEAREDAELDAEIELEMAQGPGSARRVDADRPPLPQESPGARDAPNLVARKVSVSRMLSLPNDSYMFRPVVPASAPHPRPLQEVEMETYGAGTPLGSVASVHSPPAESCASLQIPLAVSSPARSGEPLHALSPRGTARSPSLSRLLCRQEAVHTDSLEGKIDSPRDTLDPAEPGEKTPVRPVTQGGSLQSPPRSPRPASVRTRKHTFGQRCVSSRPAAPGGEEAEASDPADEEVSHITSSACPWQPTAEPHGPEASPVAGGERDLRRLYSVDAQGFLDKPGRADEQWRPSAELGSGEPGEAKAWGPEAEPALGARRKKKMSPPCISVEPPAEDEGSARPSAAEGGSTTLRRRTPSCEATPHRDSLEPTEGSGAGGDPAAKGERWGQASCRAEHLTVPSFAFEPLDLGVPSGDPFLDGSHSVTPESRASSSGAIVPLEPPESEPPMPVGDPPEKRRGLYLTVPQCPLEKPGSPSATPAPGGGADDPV

[4] = molecular target: Cytochrome P450 2C9 (Homo sapiens, UniProt P11712); settings: Potency
Chain of Cytochrome P450 2C9 (P11712 whole entry): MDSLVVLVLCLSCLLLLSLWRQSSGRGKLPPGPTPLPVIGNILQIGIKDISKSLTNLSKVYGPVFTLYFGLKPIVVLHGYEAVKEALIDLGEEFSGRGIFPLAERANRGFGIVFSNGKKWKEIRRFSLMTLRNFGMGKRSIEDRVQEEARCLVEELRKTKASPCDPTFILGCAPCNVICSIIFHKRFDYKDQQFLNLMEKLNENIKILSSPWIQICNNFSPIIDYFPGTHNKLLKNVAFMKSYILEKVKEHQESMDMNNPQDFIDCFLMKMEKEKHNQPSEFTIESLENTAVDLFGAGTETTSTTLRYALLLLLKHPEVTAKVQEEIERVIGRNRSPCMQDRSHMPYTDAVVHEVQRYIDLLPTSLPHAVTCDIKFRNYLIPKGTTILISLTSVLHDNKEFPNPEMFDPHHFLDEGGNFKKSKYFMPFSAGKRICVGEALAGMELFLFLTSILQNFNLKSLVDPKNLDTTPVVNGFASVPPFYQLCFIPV

Chain of Beta-galactosidase (Q8VNN2 whole entry): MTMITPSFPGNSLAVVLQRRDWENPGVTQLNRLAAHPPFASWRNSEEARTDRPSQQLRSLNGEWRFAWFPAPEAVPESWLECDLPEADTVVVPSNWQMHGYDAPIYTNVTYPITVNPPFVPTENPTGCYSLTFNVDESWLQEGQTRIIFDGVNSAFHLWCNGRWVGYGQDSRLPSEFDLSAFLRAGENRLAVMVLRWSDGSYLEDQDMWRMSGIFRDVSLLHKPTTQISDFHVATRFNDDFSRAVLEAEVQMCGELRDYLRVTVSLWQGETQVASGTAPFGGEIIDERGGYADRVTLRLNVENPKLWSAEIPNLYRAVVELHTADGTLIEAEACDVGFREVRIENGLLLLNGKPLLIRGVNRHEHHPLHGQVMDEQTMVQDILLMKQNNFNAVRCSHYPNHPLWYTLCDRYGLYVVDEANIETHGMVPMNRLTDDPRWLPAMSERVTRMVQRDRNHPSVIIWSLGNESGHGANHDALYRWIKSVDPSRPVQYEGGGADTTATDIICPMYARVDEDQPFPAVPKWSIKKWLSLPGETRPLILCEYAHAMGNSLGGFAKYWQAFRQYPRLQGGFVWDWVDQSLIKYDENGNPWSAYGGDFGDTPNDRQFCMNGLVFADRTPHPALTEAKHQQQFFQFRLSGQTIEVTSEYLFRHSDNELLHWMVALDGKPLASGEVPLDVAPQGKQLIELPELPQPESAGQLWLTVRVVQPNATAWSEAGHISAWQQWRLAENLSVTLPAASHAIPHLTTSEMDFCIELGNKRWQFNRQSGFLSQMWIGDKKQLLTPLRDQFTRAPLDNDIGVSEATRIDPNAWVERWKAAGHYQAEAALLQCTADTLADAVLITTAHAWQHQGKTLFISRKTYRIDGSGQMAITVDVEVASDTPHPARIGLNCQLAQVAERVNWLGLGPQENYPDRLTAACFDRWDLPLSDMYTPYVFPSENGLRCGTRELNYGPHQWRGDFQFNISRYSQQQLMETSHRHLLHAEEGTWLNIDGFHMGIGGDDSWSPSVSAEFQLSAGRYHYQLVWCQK

With `Cc1ccc(C(NC(=O)C(C)C)c2cc([N+](=O)[O-])c3cccnc3c2O)cc1` (centres undefined) the IC50 [1] was > 66.6 µM (inactive) and the AC50 [2] was 1.02 µM (active).

For `CCC(=O)N1CCN(c2ccccc2NC(=O)Cc2ccccc2)CC1`, the EC50 [3] was 12.9 µM (active).

For `COc1ccc(-c2oc3cc(OC)c(OC(C)=O)c(OC)c3c(=O)c2OC)cc1OC(C)=O`, the AC50 [4] was 31.6 µM (inconclusive).
